Where a name gives a salt, the structure may show the parent alone.
What was measured:
[1] = system: NCI-H292 lung cancer cells; assay: FDA drug screening, complete media vs cholesterol-free media without statin (TABLE 1); type: cell-based, human
[2] = system: NCI-H292 lung cancer cells; assay: FDA drug screening, complete media vs cholesterol-free media with simvastatin (TABLE 2); type: cell-based, human; conditions: for Cholesterol-free media + simvastatin (0.04 μM) / Complete Media: NCI-H292 cells
[3] = Complete minus Cholesterol-free; >0 enhanced anti-cancer activity, about 0 neutral, <0 antagonist
[4] = NCI-H292 cells, cholesterol-free media without statin, FDA drug library screen
[5] = NCI-H292 cells, complete media, FDA drug library screen
[6] = FDA library drug in cholesterol-free media with simvastatin 0.04 μM
[7] = FDA library drug in complete media
[8] = complete media vs cholesterol-free media + simvastatin (0.04 μM), >0 enhanced anti-cancer activity, about 0 neutral, <0 antagonist
[9] = Complete minus Cholesterol-free; […]
[10] = NCI-H292 cells, cholesterol-free media without statin
[11] = complete media vs cholesterol-free media + simvastatin (0.04 μM), […]
[12] = drug in cholesterol-free media with simvastatin 0.04 μM
[13] = FDA drug library screen, cholesterol-free media with simvastatin 0.04 μM
[14] = FDA drug library screen, complete media
[15] = complete vs cholesterol-free media; greater than 0 enhanced anti-cancer activity, about 0 neutral, below 0 antagonists
[16] = complete vs cholesterol-free media; >0 enhanced anti-cancer activity, about 0 neutral, <0 antagonist
[17] = complete media minus cholesterol-free media + simvastatin, >0 enhanced anti-cancer activity, about 0 neutral, <0 antagonist
[18] = cholesterol-free media with simvastatin 0.04 μM, cell growth value in FDA drug screen
[19] = complete media, cell growth value in FDA drug screen
[20] = complete media minus cholesterol-free media + simvastatin, […]

Compound | Cholesterol-free [1, 4] | Complete [1, 5] | Difference [2, 8] | Cholesterol-free [1, 10] | Complete ([1]; NCI-H292 cells, complete media) | Cholesterol-free media + simvastatin (0.04 μM) [2, 13] | Complete Media [2, 14] | also measured
O=C(Nc1c(Cl)cncc1Cl)c1ccc(OC(F)F)c(OCC2CC2)c1 [Roflumilast] | 0.9495 | 0.8928 | −0.71 |  |  |  |  | Difference [1, 3]: −0.06; Cholesterol-free media + simvastatin (0.04 μM) [2, 6]: 1.607; Complete Media [2, 7]: 0.8972
CNC(=O)c1cnn(-c2nc(N)c3ncn([C@@H]4O[C@H](CO)[C@@H](O)[C@H]4O)c3n2)c1 [Regadenoson] |  |  |  | 1.426 | 1.216 |  |  | Difference [1, 9]: −0.21; Cholesterol-free media + simvastatin (0.04 μM) [2, 6]: 1.362; Complete Media [2, 7]: 1.055; Difference [2, 11]: −0.31
CC(=O)NC[C@H]1CN(c2ccc(N3CCOCC3)c(F)c2)C(=O)O1 [Linezolid] | 0.9483 | 0.9881 | −0.19 |  |  |  |  | Difference [1, 3]: 0.04; Cholesterol-free media + simvastatin (0.04 μM) [2, 12]: 1.38; Complete Media ([2]; drug in complete media): 1.187
c1cc(CN2CCCNCCNCCCNCC2)ccc1CN1CCCNCCNCCCNCC1 [Plerixafor (octahydrochloride)] |  |  | −0.35 |  |  |  |  | Difference ([1]; Complete minus Cholesterol-free; greater than 0 enhanced anti-cancer activity, about 0 neutral, below 0 antagonist): −0.08; Cholesterol-free ([1]; NCI-H292 cells, FDA drug library screen, cholesterol-free media without statin): 1.221; Complete ([1]; NCI-H292 cells, FDA drug library screen, complete media): 1.137; Cholesterol-free media + simvastatin (0.04 μM) [2, 6]: 1.159; Complete Media [2, 7]: 0.812
Osimertinib (dimesylate) | 0.1916 | 0.1371 |  |  |  | 0.4427 | 0.3618 | Difference [1, 9]: −0.05; Difference [2, 11]: −0.08
O=C(COc1ccc(Cl)cc1)N1CCN(Cc2ccc3c(c2)OCO3)CC1 [Fipexide] | 1.201 | 1.177 | −0.43 |  |  |  |  | Difference [1, 3]: −0.02; Cholesterol-free media + simvastatin (0.04 μM) [2, 6]: 1.655; Complete Media [2, 7]: 1.225
COc1ccccc1OCC(O)CN1CCN(CC(=O)Nc2c(C)cccc2C)CC1 (stereo not drawn) [Ranolazine] |  |  | −0.15 | 1.774 | 1.359 | 1.311 | 1.162 | Difference [1, 15]: −0.41
O=c1cc(-c2ccccc2)oc2cc(O)c(O)c(O)c12 [Baicalein] |  |  | −0.26 | 1.261 | 0.9313 |  |  | Difference [1, 15]: −0.33; Cholesterol-free media + simvastatin (0.04 μM) [2, 12]: 1.347; Complete Media ([2]; drug in complete media): 1.087
CC(C)N1CCN(c2ccc(OCC3COC(Cn4cncn4)(c4ccc(Cl)cc4Cl)O3)cc2)CC1 (stereo not drawn) [Terconazole] | 1.052 | 1.158 |  |  |  | 0.6294 | 1.003 | Difference [1, 16]: 0.11; Difference [2, 17]: 0.37
C=C(CC)C(=O)c1ccc(OCC(=O)O)c(Cl)c1Cl [Ethacrynic acid] | 0.8126 | 0.956 |  |  |  |  |  | Difference [1, 16]: 0.14; Cholesterol-free media + simvastatin (0.04 μM) [2, 18]: 1.155; Complete Media [2, 19]: 1.268; Difference [2, 17]: 0.11
CC(C)C(=O)OCC(=O)[C@@]12O[C@H](C3CCCCC3)O[C@@H]1C[C@H]1[C@@H]3CCC4=CC(=O)C=C[C@]4(C)[C@H]3[C@@H](O)C[C@@]12C [Ciclesonide] |  |  | −0.09 | 0.7014 | 0.4234 | 0.6652 | 0.5742 | Difference [1, 3]: −0.28
COc1cccc2c1C(=O)c1c(O)c3c(c(O)c1C2=O)C[C@@](O)(C(C)=O)C[C@@H]3O[C@H]1C[C@H](N)[C@H](O)[C@H](C)O1 [Daunorubicin (Hydrochloride)] | 0.01433 | 0.008412 |  |  |  |  |  | Difference [1, 9]: −0.01; Cholesterol-free media + simvastatin (0.04 μM) ([2]; cholesterol-free media with simvastatin 0.04 μM, FDA drug library screen (TABLE 2)): 0.006543; Complete Media ([2]; complete media, FDA drug library screen (TABLE 2)): −0.007495; Difference ([2]; complete media minus cholesterol-free media + simvastatin (0.04 μM), […]): −0.01
OC(CCN1CCCCC1)(c1ccccc1)C1CCCCC1 (stereo not drawn) [Trihexyphenidyl (hydrochloride)] |  |  | −0.22 | 1.407 | 0.9676 |  |  | Difference [1, 15]: −0.44; Cholesterol-free media + simvastatin (0.04 μM) [2, 12]: 0.9099; Complete Media ([2]; drug in complete media): 0.6915
O=S(=O)([O-])c1cc(O)ccc1O.O=S(=O)([O-])c1cc(O)ccc1O.[Ca+2] [Calcium dobesilate] | 1.325 | 1.418 |  |  |  |  |  | Difference ([1]; complete vs cholesterol-free media; […]): 0.09; Cholesterol-free media + simvastatin (0.04 μM) [2, 12]: 1.427; Complete Media ([2]; drug in complete media): 1.218; Difference [2, 11]: −0.21
O=c1[nH]c(=O)n(C2CCCO2)cc1F (stereo not drawn) [Tegafur] |  |  |  | 0.9682 | 0.7137 | 1.002 | 1.263 | Difference [1, 3]: −0.25; Difference [2, 17]: 0.26
CC1(C)S[C@@H]2[C@H](NC(=O)[C@H](N)c3ccccc3)C(=O)N2[C@H]1C(=O)[O-].[Na+] [Ampicillin (sodium)] |  |  | −0.22 | 1.356 | 0.9032 |  |  | Difference [1, 15]: −0.45; Cholesterol-free media + simvastatin (0.04 μM) [2, 12]: 1.087; Complete Media ([2]; drug in complete media): 0.8623
CC(CCc1ccc(O)cc1)NCCc1ccc(O)c(O)c1 (stereo not drawn) [Dobutamine (hydrochloride)] | 1.125 | 1.131 |  |  |  | 0.8343 | 1.237 | Difference [1, 3]: 0.01; Difference [2, 17]: 0.40
O=NN(CCCl)C(=O)NCCCl [Carmustine] |  |  |  | 0.9766 | 0.7259 | 1.071 | 1.247 | Difference [1, 9]: −0.25; Difference [2, 20]: 0.18
Eliglustat (hemitartrate) |  |  |  | 0.8345 | 0.5954 |  |  | Difference [1, 9]: −0.24; Cholesterol-free media + simvastatin (0.04 μM) [2, 12]: 0.9268; Complete Media ([2]; drug in complete media): 0.7576; Difference [2, 11]: −0.17
CC1=C(C(=O)O)N2C(=O)[C@@H](NC(=O)[C@H](N)C3=CCC=CC3)[C@H]2SC1 [Cephradine] | 0.9298 | 1.756 | −0.36 |  |  |  |  | Difference [1, 16]: 0.83; Cholesterol-free media + simvastatin (0.04 μM) [2, 6]: 1.213; Complete Media [2, 7]: 0.8523
Fesoterodine (fumarate) |  |  |  | 1.247 | 1.003 | 0.9771 | 1.278 | Difference [1, 9]: −0.24; Difference [2, 20]: 0.30
Cc1ccccc1-c1cc(N2CCN(C)CC2)ncc1N(C)C(=O)C(C)(C)c1cc(C(F)(F)F)cc(C(F)(F)F)c1 [Netupitant] |  |  |  | 1.25 | 0.915 |  |  | Difference [1, 15]: −0.34; Cholesterol-free media + simvastatin (0.04 μM) [2, 18]: 0.8546; Complete Media [2, 19]: 0.9156; Difference [2, 17]: 0.06

From US20250144067A1, “PERSONALIZED STARVATION THERAPY FOR CANCER” (Faeth Therapeutics, Inc., priority 2021, published 2025)
